Experimental data from PubChem BioAssay (NCI).
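Tested at 5 concentrations; 48 h exposure; 96-well plates; endpoints linearly interpolated, else capped at highest concentration. GI50: concentration for 50% inhibition of growth. TGI is the concentration that stops growth completely.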

Experiments:
Test in all cases: inhibition of tumour cell growth, NCI panel, 48 h
SF-539 CNS = system: SF-539 CNS
NCI-H23 lung = system: NCI-H23 lung
IGROV1 ovarian = system: IGROV1 ovarian
HOP-62 NSCLC = system: HOP-62 NSCLC
HT29 colon = system: HT29 colon
NCI-H522 lung = system: NCI-H522 lung
A549 NSCLC = system: A549 NSCLC
DU-145 prostate = system: DU-145 prostate
HS 578T breast = system: HS 578T breast
SR leukemia = system: SR leukemia

Row | SMILES | GI50 (SF-539 CNS) | TGI (SF-539 CNS) | GI50 (NCI-H23 lung) | TGI (NCI-H23 lung) | GI50 (IGROV1 ovarian) | TGI (IGROV1 ovarian) | GI50 (HOP-62 NSCLC) | TGI (HOP-62 NSCLC) | GI50 (HT29 colon) | TGI (HT29 colon) | GI50 (NCI-H522 lung) | TGI (NCI-H522 lung) | GI50 (A549 NSCLC) | TGI (A549 NSCLC) | GI50 (DU-145 prostate) | TGI (DU-145 prostate) | GI50 (HS 578T breast) | TGI (HS 578T breast) | TGI (SR leukemia) | GI50 (SR leukemia)
1 | CCOC(=O)C(N)C[S][Sn]([CH3])([CH3])[Cl] (centres undefined) | > 100 µM | > 100 µM | > 100 µM | > 100 µM | > 100 µM | > 100 µM | > 100 µM | > 100 µM | > 100 µM | > 100 µM | 18.4 µM | 38.4 µM | > 100 µM | > 100 µM |  |  |  |  |  | 
2 | COc1cc(OC)cc(C2CC(=O)Nc3c2c(C)nn3-c2nc3ccccc3[nH]2)c1 (centres undefined) | 2.96 µM | 9.43 µM | 2.79 µM | 7.73 µM | 2.74 µM | 7.76 µM | 2.65 µM | 6.62 µM | 2.75 µM | 7.43 µM | 2.08 µM | 5.58 µM | 3.18 µM | 15.5 µM | 3.73 µM | 17.1 µM | 3.06 µM | 39.9 µM |  | 
3 | CC[C@@H]1OC2(C)CC(S(=O)(=O)c3ccccc3O)CC1O2 (some centres undefined) |  | > 100 µM |  | > 100 µM |  | > 100 µM |  | > 100 µM |  |  |  | > 100 µM |  | > 100 µM |  |  |  |  | > 100 µM | 
4 | COc1ccc(-c2onc(-c3ccc([N+](=O)[O-])cc3)c2C2=NCCN2)cc1 |  | > 100 µM |  | > 100 µM |  | > 100 µM |  | > 100 µM |  | > 100 µM |  |  |  | > 100 µM |  |  |  |  | > 100 µM | 
5 | C=CC1(C(=O)O)CCC(C(C)(C)C)CC1 (centres undefined) |  | > 100 µM |  | > 100 µM |  | > 100 µM |  | > 100 µM |  | > 100 µM |  | > 100 µM |  | > 100 µM |  |  |  |  | > 100 µM | 
6 | CCOC(=O)C(Cc1c[nH]c2ccc(N)cc12)(NC(C)=O)C(=O)OCC | > 1000 µM | > 1000 µM | > 1000 µM | > 1000 µM | > 1000 µM | > 1000 µM | > 1000 µM | > 1000 µM | > 1000 µM | > 1000 µM | > 1000 µM | > 1000 µM | > 1000 µM | > 1000 µM | > 1000 µM | > 1000 µM | > 1000 µM | > 1000 µM |  | 
7 | O=C(/C=C/c1ccc([N+](=O)[O-])o1)N1CCN(Cc2ccccc2)CC1 |  | 19.4 µM |  | 18.7 µM |  | 32.1 µM |  | 34.6 µM |  | 31.5 µM |  | 8.16 µM |  | 35.2 µM |  |  |  |  | 38.7 µM | 
8 | NC(=O)C(=Cc1ccc(C(O)P(=O)(O)O)cc1)C(N)=O (centres undefined) |  | > 100 µM |  | > 100 µM |  | > 100 µM |  | > 100 µM |  | > 100 µM |  | > 100 µM |  | > 100 µM |  |  |  |  |  | 
9 | CCOC(=O)c1cc(C#N)c(=O)n(/N=C(\C)c2ccncc2)c1O |  |  | > 100 µM | > 100 µM | > 100 µM | > 100 µM | > 100 µM | > 100 µM | > 100 µM | > 100 µM |  |  | > 100 µM | > 100 µM | > 100 µM | > 100 µM | > 100 µM | > 100 µM | > 100 µM | > 100 µM
10 | CC/C(C)=C1\CCC(CN2CCOCC2)C1=O (centres undefined) |  | 35 µM |  | 30.6 µM |  | 38.1 µM |  | 40.2 µM |  | 39.9 µM |  |  |  | 41.6 µM |  |  |  |  | 49.8 µM | 
11 | COc1cc(/C=C(\C#N)C(=O)c2ccccc2)ccc1OCc1ccccc1 |  | > 100 µM |  | > 100 µM |  | > 100 µM |  | > 100 µM |  |  |  | > 100 µM |  | > 100 µM |  |  |  |  | > 100 µM | 
12 | Cc1c(NC(=O)C(C)(C)Br)c(=O)oc2c(C)c3occc(=O)c3cc12 |  | > 100 µM |  | > 100 µM |  | > 100 µM |  | > 100 µM |  | > 100 µM |  |  |  | > 100 µM |  |  |  |  | > 100 µM | 
13 | CC1C[C@@]2(c3ccccc3)C(=O)CCC[C@H]2N1 (some centres undefined) |  | > 100 µM |  | > 100 µM |  | > 100 µM |  | > 100 µM |  | > 100 µM |  | > 100 µM |  | > 100 µM |  |  |  |  | > 100 µM | 
14 | O=C1c2ccccc2-c2cccc3ccc(Cc4ccc5ccccc5c4)c1c23 |  | > 100 µM |  | > 100 µM |  | > 100 µM |  | > 100 µM |  | > 100 µM |  | > 100 µM |  | > 100 µM |  |  |  |  |  | 
15 | COc1cc(Cl)c2c3c(c(C(C)=O)oc13)CCC2 |  | > 100 µM |  | > 100 µM |  | > 100 µM |  | > 100 µM |  | > 100 µM |  |  |  | > 100 µM |  |  |  |  |  | 
16 | CCNC(=O)CCN(C(=O)O)S(=O)(=O)c1ccc(NC(=O)c2ccccc2)cc1 |  | > 100 µM |  | > 100 µM |  | > 100 µM |  | > 100 µM |  | > 100 µM |  | > 100 µM |  | > 100 µM |  |  |  |  | > 100 µM | 
17 | O=c1c2c(nc3n1CCS3)[nH]c1ccccc12 | > 100 µM | > 100 µM | > 100 µM | > 100 µM | 17.8 µM | > 100 µM | > 100 µM | > 100 µM | > 100 µM | > 100 µM | > 100 µM | > 100 µM | 90.1 µM | > 100 µM | > 100 µM | > 100 µM | 73.6 µM | > 100 µM |  | 
18 | O=S(=O)(N/N=C/c1ccc(/C=N/NS(=O)(=O)c2ccccc2)cc1)c1ccccc1 |  | 93.3 µM |  | 66.8 µM |  | > 100 µM |  | > 100 µM |  | > 100 µM |  |  |  | > 100 µM |  |  |  |  | > 100 µM | 
19 | CCCCCCCCC[C@@H]1CC(=O)OCC2OC(O[C@H](CCCCCCCCC)CC(=O)OCC3OC(O[C@H](CCCCCCCCC)CC(=O)OCC4OC(O1)C(O)C(O)C4O)C(O)C(O)C3O)C(O)C(O)C2O (some centres undefined) |  | 23.2 µM |  | 30.6 µM |  | 28.2 µM |  | 26.1 µM |  | 24.3 µM |  | 23.5 µM |  | 29.4 µM |  |  |  |  | 20.6 µM | 
20 | NNC(=O)/C(=C/c1ccc(Cl)c(Cl)c1)NC(=O)c1ccccc1 |  |  |  | > 100 µM |  | > 100 µM |  | > 100 µM |  | > 100 µM |  |  |  | > 100 µM |  |  |  |  |  | 
21 | COc1ccccc1N1C(=O)/C(=C/c2ccc(N(CCC#N)CCC#N)cc2C)N=C1c1cc([N+](=O)[O-])ccc1Cl |  | > 100 µM |  | > 100 µM |  | > 100 µM |  | > 100 µM |  | > 100 µM |  | > 100 µM |  | > 100 µM |  |  |  |  | > 100 µM | 
